Assay results from US7629375B2, “Cytoprotective compounds, pharmaceutical and cosmetic formulations, and methods” (Johnson & Johnson Consumer Companies, Inc., priority 2001, dated 2009).

Test system: neonatal cardiomyocytes
Test: Myocyte calcium-contractility assay
Assay type: cell-based, rat
Conditions: anaerobic chamber 16 hours in DMEM 1 mM glucose, reoxygenation two hours
Method: A. Isolation and Culture of Primary Neonate Myocytes.
The following materials are employed: • 10× Heart Dissection Solution (HDS) contains the following components (g/l) in tissue grade water: NaCl, 68; HEPES, 47.6; NaH2PO4, 2; Glucose, 10; KCl, 4; MgSO4, 1, pH adjusted to 7.4. Prior to filter sterilization of diluted (1×HDS) solution, 10 mg phenol red is added to each 500 milliliters of medium. • Transferrin and Bovine Insulin (available from Life Technologies) are resuspended at a concentration of 4 mg/ml in tissue culture grade water. • DMEM-F12—DMEM/F12, powder, 1:1 containing glutamine and pyridoxine hydrochloride (available from Life Technologies). To one liter equivalent of the powder is added 2.43 g of sodium bicarbonate and 10 ml of 100× Penicillin/Streptomycin in 950 ml of tissue culture grade water with stirring. The pH is adjusted to 7.2 with 1M HCl and volume adjusted to 1 liter. The solution is filter sterilized, followed by the addition of 2.5 ml of 4 mg/ml Transferrin, 250 μl 4 mg/ml Insulin and 30.7 mg of bromodeoxyuridine. • DMEM-F12-5% FBS is also prepared for pre-coating the tissue culture plates and initial suspension of the cardiomyocyte pellet. • Collagenase solution-57.1 mg of collagenase is resuspended in 140 ml 1×HDS.
Tissue culture ware is pre-coated with DMEM-F12-5% FBS by incubating […] per well of a 96-well plate and 0.5 ml per 24-well plate at 37° C.
Two-day old rat pups are removed from their mothers and placed in a sterile container. Pups are dipped quickly into 70% alcohol, then decapitated and the body placed in an empty sterile tissue culture dish. An incision is made starting at the neck and progressing towards the belly, cutting through the sternum. The heart is removed and placed in a tissue culture dishes containing 1×HDS. The atria are trimmed, and the remaining ventricles are placed into a separate tissue culture dish containing 1×HDS, where they are sectioned into 3-4 pieces each. Ventricles are then transferred to a sterile 250 ml glass flask and the 1×HDS is removed. Twenty milliliters of pre-warmed collagenase solution is added to the ventricles, followed by incubation at 37° C. with shaking. After 20 minutes, the collagenase solution is removed and replaced with 20 ml fresh pre-warmed collagenase. Incubation is continued for an additional 20 minutes. At the end of the incubation, any tissue chunks are allowed to settle prior to removing the collagenase (containing the isolated cardiomyocytes) from the disrupted tissue pieces. The isolated myocytes are added to a 50 ml Falcon tube containing 2 ml Fetal Bovine Serum (FBS). The remaining tissue pieces are subjected to a second digestion by adding 20 ml fresh pre-warmed collagenase and incubating as above for 20 minutes. This second digest is then centrifuged at 1000 rpm for 5 minutes (tabletop centrifuge). The resulting supernatant is discarded, and the cell pellet is suspended with 4 ml FBS. The resulting cell suspension is placed in the incubator at 37° C. This step is repeated several additional times to harvest additional material.
Percoll gradients are prepared by adding 2.5 ml of 10×HDS to 22.5 ml of Percoll (Life Technologies) with mixing (Percoll Stock). Top Gradient solution (11 ml Percoll Stock and 14 ml 1×HDS) and Bottom Gradient solution (13 ml Percoll Stock and 7 ml 1×HDS) are prepared. Four milliliters of the Top Gradient solution is transferred into 6×15 ml sterile Falcon tubes. Three milliliters of the Bottom Gradient solution is placed in each tube by inserting a serological pipette to the bottom of the tube and slowly adding the liquid.
All the digests (6) are pooled in one 50 ml Falcon tube and centrifuged on a tabletop centrifuge at 1000 rpm for 10 minutes. The supernatant is discarded, and the cell pellet is resuspended in 12 ml of 1×HDS. Two milliliters of the cell suspension is added to the top of each gradient. […]

## COCOc1cc(C=Cc2ccc(C(=O)OC)cc2)cc(CC=C(C)C)c1OCOC [4-{2-[3,4-bis-methoxymethoxy-5-(3-methyl-but-2-enyl)-phenyl]-vinyl}-benzoic acid methyl ester]
  calcium transients (Fluo-4) in amounts indicative of ability guard against ischemic damage and maintain contractile function: presence of calcium transients

## O=C1c2ccccc2C(=O)c2cc(C=Cc3ccc(O)c(O)c3)ccc21 [2-[2-(3,4-dihydroxy-phenyl)-vinyl]-anthraquinone]
  calcium transients (Fluo-4) in amounts indicative of ability guard against ischemic damage and maintain contractile function: presence of calcium transients

## COCOc1cc(C=Cc2ccc([N+](=O)[O-])cc2)cc(OCOC)c1CC=C(C)CCC=C(C)C [2-(3,7-dimethyl-octa-2,6-dienyl)-1,3-bis-methoxymethoxy-5-[2-(4-nitro-phenyl)-vinyl]-benzene]
  calcium transients (Fluo-4) in amounts indicative of ability guard against ischemic damage and maintain contractile function: presence of calcium transients

## COCOc1ccc(C=C2SC(=O)NC2=O)cc1OCOC [5-(3,4-bis-methoxymethoxy-benzylidene)-thiazolidine-2,4-dione]
  calcium transients (Fluo-4) in amounts indicative of ability guard against ischemic damage and maintain contractile function: presence of calcium transients

## COCOc1ccc(/C=C/c2ccc(C(=O)N(CCO)CCO)cc2)cc1OCOC [4-[2-(3,4-bis-methoxymethoxy-phenyl)-vinyl]-N,N-bis-(2-hydroxy-ethyl)-benzamide]
  calcium transients (Fluo-4) in amounts indicative of ability guard against ischemic damage and maintain contractile function: presence of calcium transients

## COCOc1c(Br)cc(C=Cc2ccc([N+](=O)[O-])cc2)cc1OC [1-bromo-3-methoxy-2-methoxymethoxy-5-[2-(4-nitro-phenyl)-vinyl]-benzene]
  calcium transients (Fluo-4) in amounts indicative of ability guard against ischemic damage and maintain contractile function: presence of calcium transients

## O=C(O)C[n+]1ccc(C=Cc2ccc(O)c(O)c2)cc1.[Br-] [1-carboxymethyl-4-[2-(3,4-dihydroxy-phenyl)-vinyl]-pyridinium; bromide]
  calcium transients (Fluo-4) in amounts indicative of ability guard against ischemic damage and maintain contractile function: presence of calcium transients

## COCOc1cc(C=Cc2ccc(C(=O)OC)cc2)cc(OCOC)c1CC=C(C)CCC=C(C)C [4-{2-[4-(3,7-dimethyl-octa-2,6-dienyl)-3,5-bis-methoxymethoxy-phenyl]-vinyl}-benzoic acid methyl ester]
  calcium transients (Fluo-4) in amounts indicative of ability guard against ischemic damage and maintain contractile function: presence of calcium transients

## COCOc1c(CC=C(C)C)cc(C=Cc2ccc([N+](=O)[O-])cc2)cc1OC [1-methoxy-2-methoxymethoxy-3-(3-methyl-but-2-enyl)-5-[2-(4-nitro-phenyl)-vinyl]-benzene]
  calcium transients (Fluo-4) in amounts indicative of ability guard against ischemic damage and maintain contractile function: presence of calcium transients

## COCOc1ccc(C=Cc2ccc(C(=O)OC)c(C(=O)OC)c2)cc1OCOC [4-[2-(3,4-bis-methoxymethoxy-phenyl)-vinyl]-phthalic acid dimethyl ester]
  calcium transients (Fluo-4) in amounts indicative of ability guard against ischemic damage and maintain contractile function: presence of calcium transients

## COCOc1ccc(C=Cc2ccc(N(C)C)cc2)cc1OCOC [{4-[2-(3,4-bis-methoxymethoxy-phenyl)-vinyl]-phenyl}-dimethyl-amine]
  calcium transients (Fluo-4) in amounts indicative of ability guard against ischemic damage and maintain contractile function: presence of calcium transients

## COC(=O)c1ccc(C=Cc2cc(CC=C(C)CCC=C(C)C)c(O)c(OC)c2)cc1 [4-{2-[3-(3,7-dimethyl-octa-2,6-dienyl)-4-hydroxy-5-methoxy-phenyl]-vinyl}-benzoic acid methyl ester]
  calcium transients (Fluo-4) in amounts indicative of ability guard against ischemic damage and maintain contractile function: presence of calcium transients

## COc1cc(C=Cc2ccc(C#N)cc2)ccc1O [4-[2-(4-hydroxy-3-methoxy-phenyl)-vinyl]-benzonitrile]
  calcium transients (Fluo-4) in amounts indicative of ability guard against ischemic damage and maintain contractile function: presence of calcium transients

## O=C(O)c1ccc(C=Cc2ccc(O)c(O)c2)cc1 [4-[2-(3,4-dihydroxy-phenyl)-vinyl]-benzoic acid]
  calcium transients (Fluo-4) in amounts indicative of ability guard against ischemic damage and maintain contractile function: presence of calcium transients

## CC1=NN(c2ccccc2)C(=O)C1=Cc1ccc(O)c(O)c1 [4-(3,4-dihydroxy-benzylidene)-5-methyl-2-phenyl-2,4-dihydro-pyrazol-3-one]
  calcium transients (Fluo-4) in amounts indicative of ability guard against ischemic damage and maintain contractile function: presence of calcium transients

## COCOc1c(C/C=C(\C)CCC=C(C)C)cc(C=Cc2ccc([N+](=O)[O-])cc2)cc1OC [1-(3,7-dimethyl-octa-2,6-dienyl)-3-methoxy-2-methoxymethoxy-5-[2-(4-nitro-phenyl)-vinyl]-benzene]
  calcium transients (Fluo-4) in amounts indicative of ability guard against ischemic damage and maintain contractile function: presence of calcium transients

## O=[N+]([O-])c1ccc(C=Cc2cc(O)cc(O)c2)cc1 [5-[2-(4-nitro-phenyl)-vinyl]-benzene-1,3-diol]
  calcium transients (Fluo-4) in amounts indicative of ability guard against ischemic damage and maintain contractile function: presence of calcium transients

## COCOc1c(CC=C(C)C)cc(C=Cc2ccc(C(=O)OC)cc2)cc1OC [4-{2-[3-methoxy-4-methoxymethoxy-5-(3-methyl-but-2-enyl)-phenyl]-vinyl}-benzoic acid methyl ester]
  calcium transients (Fluo-4) in amounts indicative of ability guard against ischemic damage and maintain contractile function: presence of calcium transients

## COCOc1ccc(C=Cc2ccnc(-c3cc(C)ccn3)c2)cc1OCOC [4-[2-(3,4-bis-methoxymethoxy-phenyl)-vinyl]-4′-methyl-[2,2′]bipyridinyl]
  calcium transients (Fluo-4) in amounts indicative of ability guard against ischemic damage and maintain contractile function: presence of calcium transients

## COCOc1cc(C=Cc2ccc(C#N)cc2)cc(OCOC)c1CC=C(C)C [4-{2-[3,5-bis-methoxymethoxy-4-(3-methyl-but-2-enyl)-phenyl]-vinyl}-benzonitrile]
  calcium transients (Fluo-4) in amounts indicative of ability guard against ischemic damage and maintain contractile function: presence of calcium transients

## COCOc1ccc(C=C2C(=O)Oc3ccccc32)cc1OCOC [3-(3,4-bis-methoxymethoxy-benzylidene)-3H-benzofuran-2-one]
  calcium transients (Fluo-4) in amounts indicative of ability guard against ischemic damage and maintain contractile function: presence of calcium transients

## COCOc1cc(C=Cc2ccc(C#N)cc2)cc(OCOC)c1CC=C(C)CCC=C(C)C [4-{2-[4-(3,7-dimethyl-octa-2,6-dienyl)-3,5-bis-methoxymethoxy-phenyl]-vinyl}-benzonitrile]
  calcium transients (Fluo-4) in amounts indicative of ability guard against ischemic damage and maintain contractile function: presence of calcium transients

## CNc1ccc(C=Cc2ccc(OCOC)c(OCOC)c2)cc1 [{4-[2-(3,4-bis-methoxymethoxy-phenyl)-vinyl]-phenyl}-methyl-amine]
  calcium transients (Fluo-4) in amounts indicative of ability guard against ischemic damage and maintain contractile function: presence of calcium transients

## COCOc1ccc(C=Cc2nccs2)cc1OCOC [2-[2-(3,4-bis-methoxymethoxy-phenyl)-vinyl]-thiazole]
  calcium transients (Fluo-4) in amounts indicative of ability guard against ischemic damage and maintain contractile function: presence of calcium transients

## COCOc1ccc(C=CC=Cc2ccc([N+](=O)[O-])cc2)cc1OC [2-methoxy-1-methoxymethoxy-4-[4-(4-nitro-phenyl)-buta-1,3-dienyl]-benzene]
  calcium transients (Fluo-4) in amounts indicative of ability guard against ischemic damage and maintain contractile function: presence of calcium transients

## COCOc1cc(C=Cc2ccc([N+](=O)[O-])cc2)cc(OCOC)c1 [1,3-bis-methoxymethoxy-5-[2-(4-nitro-phenyl)-vinyl]-benzene]
  calcium transients (Fluo-4) in amounts indicative of ability guard against ischemic damage and maintain contractile function: presence of calcium transients

## COc1cc(C=CC=Cc2ccc([N+](=O)[O-])cc2)ccc1O [2-methoxy-4-[4-(4-nitro-phenyl)-buta-1,3-dienyl]-phenol]
  calcium transients (Fluo-4) in amounts indicative of ability guard against ischemic damage and maintain contractile function: presence of calcium transients
